These results are taken from publication PMC12005470, “Effects of Cholesterol on the Breast Cancer Resistance Protein: Studies through the Synthesis and Biological Evaluation of Chemical Tools” (Chemmedchem, 2025).

Series [1] deals with T1, breast cancer resistance protein (BCRP/ABCG2) (Homo sapiens, UniProt Q9UNQ0).
T1 sequence (Q9UNQ0 1-655): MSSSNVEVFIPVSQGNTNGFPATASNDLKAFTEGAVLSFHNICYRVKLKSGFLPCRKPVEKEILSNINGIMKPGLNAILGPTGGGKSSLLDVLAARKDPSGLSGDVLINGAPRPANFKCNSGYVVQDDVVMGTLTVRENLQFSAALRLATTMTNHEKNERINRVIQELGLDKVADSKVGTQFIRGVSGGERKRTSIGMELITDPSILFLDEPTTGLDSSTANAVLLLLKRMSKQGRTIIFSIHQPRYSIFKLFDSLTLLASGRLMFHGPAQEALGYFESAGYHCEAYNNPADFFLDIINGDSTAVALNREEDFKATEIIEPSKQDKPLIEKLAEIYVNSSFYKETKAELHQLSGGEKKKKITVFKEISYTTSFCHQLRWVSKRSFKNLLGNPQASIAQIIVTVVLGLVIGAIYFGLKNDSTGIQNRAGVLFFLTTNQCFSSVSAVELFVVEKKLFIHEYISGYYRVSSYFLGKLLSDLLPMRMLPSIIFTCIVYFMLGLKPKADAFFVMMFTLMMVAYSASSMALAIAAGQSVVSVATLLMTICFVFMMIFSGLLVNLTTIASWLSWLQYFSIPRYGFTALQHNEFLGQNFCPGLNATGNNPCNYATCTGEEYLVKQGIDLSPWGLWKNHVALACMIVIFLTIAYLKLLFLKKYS
The experiment in a line: Ko143-sensitive accumulation in HEK293-ABCG2 cells, confocal microscopy; efflux by flow cytometry. The format is cell-based. Background: Flow cytometry measures light scatter and fluorescence of single cells or particles in a stream.

The target of series [2] is T1, breast cancer resistance protein (BCRP/ABCG2). In words: cell-based.

With `C=Cc1c(C)c2cc3nc(c4c5[nH]c(cc6nc(cc1[nH]2)C(C)=C6CC)c(C)c5C(=O)[C@@H]4C(=O)OC)[C@@H](CCC(=O)O)[C@@H]3C` [compound 2, pheophorbide a], in series [1], the “Ko143-sensitive accumulation in HEK293-ABCG2 cells, confocal microscopy; efflux” value is “ABCG2 inhibition by Ko143 caused an intracellular accumulation of hoechst and pheophorbide a (Figure S1)”.
Consider `O=C(/C=C/c1ccccc1)c1ccccc1` [compound 5, Chalcone (5)], for which inhibition in series [2] was half-maximal at 2210 ± 500 nM (IC50).

By IC50 is commonly meant the midpoint of a concentration-inhibition curve. Low values mean greater potency in that assay, high ones weaker potency in that assay.
